In ChEMBL document CHEMBL3797190, “Development of 3,5-Dinitrobenzylsulfanyl-1,3,4-oxadiazoles and Thiadiazoles as Selective Antitubercular Agents Active Against Replicating and Nonreplicating Mycobacterium tuberculosis” (J Med Chem, 2016):
≈ marks a conversion by molar mass, not a printed value.

Assays:
Format in all cases: functional
Mycobacterium kansasii [1] = assay: Antimycobacterial activity against Mycobacterium kansasii CNCTC My 235/80 after 21 days by microdilution method; settings: CNCTC My 235/80, 504 h
Mycobacterium kansasii [2] = assay: Antimycobacterial activity against Mycobacterium kansasii CNCTC My 6509/96 after 21 days by microdilution method; settings: CNCTC My 6509/96, 504 h
[3] = system: Mycobacterium tuberculosis; assay: Antimycobacterial activity against Mycobacterium tuberculosis CNCTC My 331/88 after 14 days by microdilution method; settings: CNCTC My 331/88, 336 h
Mycobacterium avium [4] = assay: Antimycobacterial activity against Mycobacterium avium CNCTC My 330/88 after 14 days by microdilution method; settings: CNCTC My 330/88, 336 h
[5] = system: Mycobacterium tuberculosis; assay: Antimycobacterial activity against Mycobacterium tuberculosis CNCTC My 331/88 after 21 days by microdilution method; settings: CNCTC My 331/88, 504 h
Mycobacterium avium [6] = assay: Antimycobacterial activity against Mycobacterium avium CNCTC My 330/88 after 21 days by microdilution method; settings: CNCTC My 330/88, 504 h
Mycobacterium kansasii [7] = assay: Antimycobacterial activity against Mycobacterium kansasii CNCTC My 235/80 after 14 days by microdilution method; settings: CNCTC My 235/80, 336 h
Mycobacterium kansasii [8] = assay: Antimycobacterial activity against Mycobacterium kansasii CNCTC My 6509/96 after 14 days by microdilution method; settings: CNCTC My 6509/96, 336 h
Mycobacterium kansasii [9] = assay: Antimycobacterial activity against Mycobacterium kansasii CNCTC My 235/80 after 7 days by microdilution method; settings: CNCTC My 235/80, 168 h
Mycobacterium kansasii [10] = assay: Antimycobacterial activity against Mycobacterium kansasii CNCTC My 6509/96 after 7 days by microdilution method; settings: CNCTC My 6509/96, 168 h

| Compound | MIC99 (Mycobacterium kansasii [1]) | MIC99 (Mycobacterium kansasii [2]) | MIC99 [3] | MIC99 (Mycobacterium avium [4]) | MIC99 [5] | MIC99 (Mycobacterium avium [6]) | MIC99 (Mycobacterium kansasii [7]) | MIC99 (Mycobacterium kansasii [8]) | MIC99 (Mycobacterium kansasii [9]) | MIC99 (Mycobacterium kansasii [10]) |
| --- | --- | --- | --- | --- | --- | --- | --- | --- | --- | --- |
| Nc1cc(N)cc(CSc2nnc(-c3ccc([N+](=O)[O-])cc3)s2)c1 | 250 µM (≈ 89.9 µg/mL) | 250 µM (≈ 89.9 µg/mL) | 250 µM (≈ 89.9 µg/mL) | 250 µM (≈ 89.9 µg/mL) | 250 µM (≈ 89.9 µg/mL) | 250 µM (≈ 89.9 µg/mL) | 250 µM (≈ 89.9 µg/mL) | 250 µM (≈ 89.9 µg/mL) | 250 µM (≈ 89.9 µg/mL) | 250 µM (≈ 89.9 µg/mL) |
| O=[N+]([O-])c1ccc(CSc2nnc(-c3ccccc3)s2)c([N+](=O)[O-])c1 | 4 µM (≈ 1.5 µg/mL) | 4 µM (≈ 1.5 µg/mL) | 8 µM (≈ 3 µg/mL) | 8 µM (≈ 3 µg/mL) | 16 µM (≈ 5.99 µg/mL) | 32 µM (≈ 12 µg/mL) | 4 µM (≈ 1.5 µg/mL) | 2 µM (≈ 0.749 µg/mL) | 1 µM (≈ 0.374 µg/mL) | 1 µM (≈ 0.374 µg/mL) |
| O=[N+]([O-])c1cc(CSc2nnc(C3CCCCC3)o2)cc([N+](=O)[O-])c1 | – | – | ≤ 0.03 µM | – | ≤ 0.03 µM | – | – | – | – | – |
| O=[N+]([O-])c1cc(CSc2nnc(-c3ccc(Cl)cc3)o2)cc(C(F)(F)F)c1 | > 32 µM | > 32 µM | > 32 µM | > 500 µM | > 32 µM | > 500 µM | > 32 µM | > 32 µM | > 32 µM | > 32 µM |
| O=[N+]([O-])c1cc(CSc2nnc(-c3ccccc3Cl)s2)cc([N+](=O)[O-])c1 | 1 µM (≈ 0.409 µg/mL) | 1 µM (≈ 0.409 µg/mL) | 0.125 µM (≈ 0.0511 µg/mL) | 16 µM (≈ 6.54 µg/mL) | 0.125 µM (≈ 0.0511 µg/mL) | > 16 µM | 1 µM (≈ 0.409 µg/mL) | 1 µM (≈ 0.409 µg/mL) | 0.5 µM (≈ 0.204 µg/mL) | 0.5 µM (≈ 0.204 µg/mL) |
| Cc1cc(C)cc(-c2nnc(SCc3cc([N+](=O)[O-])cc([N+](=O)[O-])c3)o2)c1 | 1 µM (≈ 0.386 µg/mL) | 2 µM (≈ 0.773 µg/mL) | 0.06 µM (≈ 0.0232 µg/mL) | > 32 µM | 0.06 µM (≈ 0.0232 µg/mL) | > 32 µM | 0.5 µM (≈ 0.193 µg/mL) | 1 µM (≈ 0.386 µg/mL) | 0.25 µM (≈ 0.0966 µg/mL) | 0.5 µM (≈ 0.193 µg/mL) |
| Cc1ccc(-c2nnc(SCc3cc([N+](=O)[O-])cc(C(F)(F)F)c3)o2)cc1 | > 32 µM | > 32 µM | > 32 µM | > 500 µM | > 32 µM | > 500 µM | > 32 µM | > 32 µM | > 32 µM | > 32 µM |
| O=[N+]([O-])c1ccc(-c2nnc(SCc3cc([N+](=O)[O-])cc(C(F)(F)F)c3)s2)cc1 | > 32 µM | > 32 µM | > 32 µM | > 500 µM | > 32 µM | > 500 µM | > 32 µM | > 32 µM | > 32 µM | > 32 µM |
| COc1cc(OC)cc(-c2nnc(SCc3cc([N+](=O)[O-])cc([N+](=O)[O-])c3)o2)c1 | 0.5 µM (≈ 0.209 µg/mL) | 1 µM (≈ 0.418 µg/mL) | 0.125 µM (≈ 0.0523 µg/mL) | 16 µM (≈ 6.69 µg/mL) | 0.125 µM (≈ 0.0523 µg/mL) | 16 µM (≈ 6.69 µg/mL) | 0.25 µM (≈ 0.105 µg/mL) | 0.5 µM (≈ 0.209 µg/mL) | 0.125 µM (≈ 0.0523 µg/mL) | 0.125 µM (≈ 0.0523 µg/mL) |
| NNC(=O)c1ccncc1 [ISONIAZID] | > 250 µM | 4 µM (≈ 0.549 µg/mL) | – | > 250 µM | – | > 250 µM | > 250 µM | 4 µM (≈ 0.549 µg/mL) | > 250 µM | 4 µM (≈ 0.549 µg/mL) |
| O=[N+]([O-])c1cc(CSc2nnc(-c3ccccc3Cl)o2)cc([N+](=O)[O-])c1 | 0.5 µM (≈ 0.196 µg/mL) | 1 µM (≈ 0.393 µg/mL) | 0.125 µM (≈ 0.0491 µg/mL) | 16 µM (≈ 6.28 µg/mL) | 0.125 µM (≈ 0.0491 µg/mL) | 32 µM (≈ 12.6 µg/mL) | 0.25 µM (≈ 0.0982 µg/mL) | 0.5 µM (≈ 0.196 µg/mL) | 0.125 µM (≈ 0.0491 µg/mL) | 0.125 µM (≈ 0.0491 µg/mL) |
| Cc1nnc(SCc2cc([N+](=O)[O-])cc([N+](=O)[O-])c2)s1 | 8 µM (≈ 2.5 µg/mL) | 16 µM (≈ 5 µg/mL) | 4 µM (≈ 1.25 µg/mL) | 125 µM (≈ 39 µg/mL) | 4 µM (≈ 1.25 µg/mL) | 125 µM (≈ 39 µg/mL) | 4 µM (≈ 1.25 µg/mL) | 8 µM (≈ 2.5 µg/mL) | 4 µM (≈ 1.25 µg/mL) | 8 µM (≈ 2.5 µg/mL) |
| O=[N+]([O-])c1ccc(CSc2nnc(-c3ccc([N+](=O)[O-])cc3)s2)cc1 | 250 µM (≈ 93.6 µg/mL) | 62 µM (≈ 23.2 µg/mL) | 62 µM (≈ 23.2 µg/mL) | 250 µM (≈ 93.6 µg/mL) | 62 µM (≈ 23.2 µg/mL) | 250 µM (≈ 93.6 µg/mL) | 250 µM (≈ 93.6 µg/mL) | 62 µM (≈ 23.2 µg/mL) | 250 µM (≈ 93.6 µg/mL) | 62 µM (≈ 23.2 µg/mL) |
